Several values for one entry are separate records, joined by “and”; a condition that tells them apart may be missing. Equal values may be shown once.
Columns and labels:
hCB1 [1] = molecular target: T1, hCB1 (Homo sapiens, UniProt P21554); assay: bioSensAll ebBRET signaling profiling, hCB1; format: cell-based; design: host or cells: HEK293SL cells, transient PEI transfection; settings: for GoB hCB1 / Gi1 hCB1: single replicate values, FigS6a; for Emax [95% CI]: normalized to CP-55,940; for EC50: read-out: EC50 [95% CI]
hCB1 [2] = molecular target: T1, hCB1; assay: Tango β-arrestin-2 recruitment, HTLA cells, CB1R; format: cell-based; design: expressed in transfected cells; host or cells: HTLA cells (gift of R. Axel), transient transfection
CB1 (rCB1) = CB1 (rCB1) (Rattus norvegicus, UniProt P20272); assay: Radioligand competition binding, [3H]-CP-55,940, rat brain membranes
Sequence of CB1 (rCB1) (P20272 whole entry): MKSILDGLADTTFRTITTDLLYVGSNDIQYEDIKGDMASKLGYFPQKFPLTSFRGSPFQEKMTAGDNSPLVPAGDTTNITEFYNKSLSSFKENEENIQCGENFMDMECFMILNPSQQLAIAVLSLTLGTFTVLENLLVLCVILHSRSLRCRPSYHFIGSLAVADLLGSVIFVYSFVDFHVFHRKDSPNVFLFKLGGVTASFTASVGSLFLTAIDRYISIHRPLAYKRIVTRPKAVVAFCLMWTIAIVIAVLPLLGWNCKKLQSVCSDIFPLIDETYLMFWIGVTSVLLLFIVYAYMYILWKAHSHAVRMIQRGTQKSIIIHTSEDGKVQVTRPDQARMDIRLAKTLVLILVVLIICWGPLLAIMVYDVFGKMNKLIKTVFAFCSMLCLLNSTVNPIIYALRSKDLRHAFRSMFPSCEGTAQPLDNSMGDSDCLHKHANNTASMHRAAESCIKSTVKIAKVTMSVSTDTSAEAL

T1 sequence (P21554 whole entry): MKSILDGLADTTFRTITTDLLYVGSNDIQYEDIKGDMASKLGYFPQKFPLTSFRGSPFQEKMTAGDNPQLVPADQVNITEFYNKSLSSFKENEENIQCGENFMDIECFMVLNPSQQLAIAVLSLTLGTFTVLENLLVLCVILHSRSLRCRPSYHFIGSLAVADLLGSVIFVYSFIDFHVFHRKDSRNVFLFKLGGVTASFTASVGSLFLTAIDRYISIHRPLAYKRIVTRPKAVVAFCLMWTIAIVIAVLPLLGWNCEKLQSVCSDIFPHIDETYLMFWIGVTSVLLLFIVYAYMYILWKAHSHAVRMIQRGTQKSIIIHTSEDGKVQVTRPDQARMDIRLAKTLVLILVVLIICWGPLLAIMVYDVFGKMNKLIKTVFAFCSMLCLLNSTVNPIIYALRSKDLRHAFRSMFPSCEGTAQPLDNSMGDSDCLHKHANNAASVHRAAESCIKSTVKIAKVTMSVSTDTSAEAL

COC(=O)[C@@H]1[C@@H]2CCC[C@@H]2CN1C(=O)c1cc(C)n(-c2cccc(C(F)(F)F)c2)n1 [‘6439]
GoB hCB1 (hCB1 [1]; Log [Compound] (M) -9.61989): -0.46 | Gi1 hCB1 (hCB1 [1]; Log [Compound] (M) -10.0969): -1.6068 | GoB hCB1 (hCB1 [1]; Log [Compound] (M) -10.0969): -4.219 | Gi1 hCB1 (hCB1 [1]; Log [Compound] (M) -10.5529): 0.5669 | GoB hCB1 (hCB1 [1]; Log [Compound] (M) -10.5529): -0.6758 | Gi1 hCB1 (hCB1 [1]; Log [Compound] (M) -11.0177): -0.651 | GoB hCB1 (hCB1 [1]; Log [Compound] (M) -11.0177): -1.557 | Gi1 hCB1 (hCB1 [1]; Log [Compound] (M) -11.4949): -0.6201 | GoB hCB1 (hCB1 [1]; Log [Compound] (M) -11.4949): 1.626 | Gi1 hCB1 (hCB1 [1]; Log [Compound] (M) -11.9208): -0.3581 | GoB hCB1 (hCB1 [1]; Log [Compound] (M) -11.9208): -0.04642 | Gi1 hCB1 (hCB1 [1]; Log [Compound] (M) -12.3979): 0.9369 | GoB hCB1 (hCB1 [1]; Log [Compound] (M) -12.3979): 0.02551 | Gi1 hCB1 (hCB1 [1]; Log [Compound] (M) -12.8861): 1.631 | GoB hCB1 (hCB1 [1]; Log [Compound] (M) -12.8861): 1.572 | Gi1 hCB1 (hCB1 [1]; Log [Compound] (M) -13): -0.9439 and 1.0911 | GoB hCB1 (hCB1 [1]; Log [Compound] (M) -13): -0.55 and -0.478 | pEC50 [95% CI] (hCB1 [1]; hCB1 Gi1): 7.2 [7.1 – 7.2] | Emax [95% CI] (hCB1 [1]; hCB1 Gi1): 95 [93 – 96] | pEC50 [95% CI] (hCB1 [1]; hCB1 GoB): 7.2 [7.2 – 7.3] | Emax [95% CI] (hCB1 [1]; hCB1 GoB): 100 [99 – 101] | pEC50 [95% CI] (hCB1 [1]; hCB1 Gz): 6.5 [5.9 – 7.0] | Emax [95% CI] (hCB1 [1]; hCB1 Gz): 162 [125 –199] | EC50 (hCB1 [1]; hCB1 Gi1): 65.5 nM | EC50 (hCB1 [1]; hCB1 GoB): 60.9 nM | EC50 (hCB1 [1]; hCB1 Gz): 339 nM | response, replicate values of concentration-response curve (FigS7f) (hCB1 [2]; Log[drug], M = -4.52): -10.8475 and 13.7559 and -1.3408 and 30.128 and 34.5335 and 23.984 and 49.6721 and 28.9692 and 37.5272 | response, replicate values of concentration-response curve (FigS7f) (hCB1 [2]; Log[drug], M = -5): 12.97 and -6.259 and -29.1004 and -18.7713 and 7.052 and 41.6727 and 31.5861 and -0.2412 and 17.8549 and 115.231 and 93.3593 and 69.1731 | response, replicate values of concentration-response curve (FigS7f) (hCB1 [2]; Log[drug], M = -5.52): -14.7516 and -1.011 and 3.958 and 21.4628 and 26.9697 and -2.702 and -24.3795 and -8.092 and 23.1695 and 55.5034 and 99.9754 and 83.8088 | response at Log[drug], M -5.52 (FigS4e) (hCB1 [2]; Log[drug], M = -5.52, individual replicates): 41.0598 and 42.1112 and 37.5809 and 36.0059 and 27.2068 and 23.0093 and 28.7041 and 23.0465 and 29.4359 and 31.2692 and 37.5598 and 31.3786 | response, replicate values of concentration-response curve (FigS7f) (hCB1 [2]; Log[drug], M = -6): -7.78 and 1.232 and -8.579 and 16.9776 and 8.83 and 54.3719 and -17.0743 and 6.68 and 7.903 and 46.3174 and 81.0931 and 82.3871 | response at Log[drug], M -6 (FigS4e) (hCB1 [2]; Log[drug], M = -6, individual replicates): 26.6779 and 28.882 and 31.009 and 30.2093 and 13.1731 and 19.3667 and 17.0092 and 18.0259 and 28.822 and 23.6752 and 23.7677 and 25.0376 | response, replicate values of concentration-response curve (FigS7f) (hCB1 [2]; Log[drug], M = -6.52): 6.949 and 23.0344 and 26.685 and -30.9662 and -12.5345 and 9.44 and -7.445 and 20.4415 and 28.8782 and 41.1229 and 58.9482 and 96.877 | response at Log[drug], M -6.52 (FigS4e) (hCB1 [2]; Log[drug], M = -6.52, individual replicates): 20.6989 and 18.775 and 18.227 and 14.6552 and 8.92 and 7.4713 and 4.648 and 5.829 and 9.707 and 10.7245 (2×) and 6.125 | response, replicate values of concentration-response curve (FigS7f) (hCB1 [2]; Log[drug], M = -7): 31.5144 and 45.4069 and -35.2101 and -37.1897 and 1.93 and 0.2842 and 7.478 and -20.5097 and -17.3775 and 49.0331 and 80.6374 and 65.8924 | response at Log[drug], M -7 (FigS4e) (hCB1 [2]; Log[drug], M = -7, individual replicates): 6.9232 and 8.043 and 10.8845 and 9.988 and 0.5556 and -1.865 and 0.4774 and 0.6189 and 2.467 and 3.148 and 2.635 and 4.207 | response, replicate values of concentration-response curve (FigS7f) (hCB1 [2]; Log[drug], M = -7.52): -4.763 and -11.0123 and 28.1301 and -8.049 and -20.0319 and -11.1013 and -22.9649 and -19.4286 and 2.9819 and 44.3307 and 18.8869 and 45.9893 | response at Log[drug], M -7.52 (FigS4e) (hCB1 [2]; Log[drug], M = -7.52, individual replicates): 6.822 and 6.684 and 9.44 and 7.52 and -3.124 and -0.9675 and -2.021 and -2.681 and -0.3421 and -0.05622 and 2.349 and 1.533 | response at Log[drug], M -8 (FigS4e) (hCB1 [2]; Log[drug], M = -8, individual replicates): 5.884 and 9.216 and 9.707 and 9.61 and -1.035 and -0.111 and -1.31 and -2.509 and 0.4231 and 1.197 and 7.663 and 1.289 | response at Log[drug], M -8.52 (FigS4e) (hCB1 [2]; Log[drug], M = -8.52, individual replicates): 12.6416 and 8.6666 and 7.701 and 11.5559 and 0.09453 and -1.259 and 2.111 and -1.3123 and 0.08722 and 0.8217 and 1.887 and 4.054 | response at Log[drug], M -9 (FigS4e) (hCB1 [2]; Log[drug], M = -9, individual replicates): 6.15 and 10.745 and 10.5633 and 11.2546 and -2.544 and -0.8488 and 0.7085 and -0.4422 and 2.383 and 3.898 and 2.695 and 3.787 | response, replicate values of concentration-response curve (FigS7f) (hCB1 [2]; Log[drug], M = -9.52): -11.8869 and 10.4349 and -26.9456 and -12.2027 and 18.9813 and -12.6008 and 11.5803 | response at Log[drug], M -9.52 (FigS4e) (hCB1 [2]; Log[drug], M = -9.52, individual replicates): 7.12 and 7.04 and 8.157 and 9.473 and -0.8081 and -1.207 and -0.4666 and -1.821 and 4.375 and 2.502 and 0.01377 and 0.5555 | response, replicate values of concentration-response curve (FigS7f) (hCB1 [2]; Log[drug], M = -10): 17.8121 and -5.27 and 8.977 and 22.6969 and 39.8414 and 41.3409 and 56.1992 and 5.841 and 17.8346 and -4.352 and 10.4482 and -28.6471 | response at Log[drug], M -10 (FigS4e) (hCB1 [2]; Log[drug], M = -10, individual replicates): 8.321 and 7.43 and 8.2855 and 10.5544 and 1.814 and -2.821 and -0.4869 and -0.1291 and 2.41 and 4.577 and 0.8034 and 1.18 | response at Log[drug], M -10.52 (FigS4e) (hCB1 [2]; Log[drug], M = -10.52, individual replicates): 8.25 and 8.706 and 9.026 and 10.1955 and -1.024 and 0.4442 and -0.6414 and 0.7573 and 1.648 and 0.8217 and 2.116 and 5.22 | response at Log[drug], M -11 (FigS4e) (hCB1 [2]; Log[drug], M = -11, individual replicates): 3.256 and 4.195 and 6.189 and 8.184 and 0.0864 and 0.615 and -0.08844 and -0.05998 and 3.273 and 3.861 and 4.338 and 1.74 | response at Log[drug], M -11.52 (FigS4e) (hCB1 [2]; Log[drug], M = -11.52, individual replicates): 5.192 and 4.514 and 4.754 and 3.593 and 1.237 and 0.5215 and -0.05998 and -1.081 and -0.5647 and 0.7391 and 0.6014 and 3.236 | response at Log[drug], M -12 (FigS4e) (hCB1 [2]; Log[drug], M = -12, individual replicates): 0.3534 and 0.1806 and 0.07866 and -0.6126 and -2.04 and 1.058 and -0.6333 and 1.615 and -1.51 and 0.6106 and 0.6473 and 0.2525 | EC50 (hCB1 [2]; hCB1, read-out: Tango ß-arrestin recruitment EC50): > 10000 nM | pKi [95% CI] (CB1 (rCB1); rCB1): 6.6 [6.4 – 6.8] | Ki (CB1 (rCB1); read-out: Ki [95% CI], rCB1, [3H]-CP-55,940): 251 nM

— paper PMC11882969 (Nature Communications, 2025)
